Measurements from patent US20240190855A1 (Relay Therapeutics, Inc., priority 2021, published 2024).

What follows are compounds tested against T1, CDK2/Cyclin E complex (Homo sapiens, UniProt P24941) (assay: CDK2/Cyclin E fluorescence-based microfluidic mobility shift assay (CDK2 Biochemical Caliper Assay)). Details: read-out: Biochemical CDK2/CyclinE Caliper IC50.
T1 construct: purchased Eurofins 14-475
Protocol: Compounds of the present disclosure were tested in a CDK2/Cyclin E fluorescence-based microfluidic mobility shift assay (PerkinElmer).
The active wild type CDK2/Cyclin E complex was purchased from Eurofins (14-475). Compound stocks were prepared in DMSO and were serially diluted into 11 concentrations by 3-fold dilution. […] Compounds were incubated in the presence of CDK2/Cyclin E complex and ATP for 30 minutes at room temperature. Catalytic reaction was initiated with the addition of 5 uL of a 4× peptide solution containing 6 uM fluorescently label substrate peptide, FL Peptide 18 (aa sequence 5-FAM-QSPKKG, PerkinElmer, 760362) in 1× reaction buffer.
The final reaction components were 0.1 nM CDK2/Cyclin E, 2000 uM ATP and 1.5 uM FL Peptide 18 and 1% DMSO. Reactions were incubated RT for 20 hr and terminated with 75 uL of a stopping solution containing 0.5 M EDTA. Samples were analyzed using a LabChip EZ reader (PerkinElmer).
`COCc1cc(C(=O)Nc2cc([C@H]3CC[C@@H](Oc4cncnc4C)C3)[nH]n2)n(C)n1` (single isomer, unassigned) [Example 490] was tested, and the IC50 was 1000 to 100000 nM. Compound `COCc1cc(C(=O)Nc2cc([C@H]3C[C@H](CC(=O)NC(C)C)C3)[nH]n2)n(C)n1` [Example 361] has an IC50 of 1000 to 100000 nM. In the case of `COCc1cc(C(=O)Nc2cc([C@H]3CC[C@H](c4cc(C(C)C)ncn4)C3)[nH]n2)n(C)n1` (single isomer, unassigned) [Example 603], the IC50 is reported as 1000 to 100000 nM. With `Cc1cncc(Cl)c1Nc1cc(C2CCCC2)[nH]n1` [Example 799] the IC50 was 1000 to 100000 nM. Compound `COCc1cc(C(=O)Nc2cc([C@H]3C[C@@]4(CN(CC(C)C)C(=O)N4)C3)[nH]n2)n(C)n1` [Example 516] has an IC50 of 250 to 1000 nM. In the case of `COCc1cc(C(=O)Nc2cc([C@H]3CC[C@@H](Oc4cncnc4)C3)[nH]n2)n(C)n1` (single isomer, unassigned) [Example 387], the IC50 is reported as 1000 to 100000 nM. In the case of `CC(C)NC(=O)O[C@@H]1CC[C@H](c2cc(NC(=O)CN(C)c3ncnc4nc[nH]c34)n[nH]2)C1` (single isomer, unassigned) [Example 374], the IC50 is reported as 100 to 250 nM. `Cc1cc(CC(=O)Nc2cc([C@H]3CC[C@@H](NC(=O)[C@@H](O)C(C)C)C3)[nH]n2)on1` (single isomer, unassigned) [Example 482] showed an IC50 of 1000 to 100000 nM. With `Cc1cc(CC(=O)Nc2cc([C@@H]3C[C@@H](OC(=O)NC4(C)CC4)CO3)[nH]n2)on1` (single isomer, unassigned) [Example 109] the IC50 was 1000 to 100000 nM. In the case of `COCc1cc2c(Nc3cc([C@@H]4C[C@H](OC(=O)N[C@@H](C)C5CC5)CO4)[nH]n3)nccn2n1` [Example 766], the IC50 is reported as ≤ 100 nM. In the case of `COCc1cc(C(=O)Nc2cc([C@@H]3CC[C@H](Oc4nnccc4C(F)(F)F)C3)[nH]n2)n(C)n1` (single isomer, unassigned) [Example 477], the IC50 is reported as ≤ 100 nM. `OCCOc1cncc(Nc2cc(C3CCCC3)[nH]n2)n1` [Example 842] showed an IC50 of 100 to 250 nM. For `COCc1cc2c(Nc3cc([C@H]4C[C@@H](OC(=O)N[C@H]5CC5(C)C)CO4)[nH]n3)nccn2n1` [Example 677], the IC50 was ≤ 100 nM. For `Cc1[nH]nc2nccc(Nc3cc(C4CCCC4)[nH]n3)c12` [Example 827], the IC50 was 1000 to 100000 nM. `COCc1cc(C(=O)Nc2cc([C@@H]3CC[C@H](c4nccc(C(C)C)n4)C3)[nH]n2)n(C)n1` (single isomer, unassigned) [Example 610] was tested, and the IC50 was ≤ 100 nM. For `COCc1cc(C(=O)Nc2cc([C@H]3CC[C@@H](Oc4nnccc4C(F)(F)F)C3)[nH]n2)n(C)n1` (single isomer, unassigned) [Example 476], the IC50 was ≤ 100 nM. `COCc1cc2c(Nc3cc([C@H]4C[C@@H](Oc5nncn5C5(C(F)(F)F)CC5)CO4)[nH]n3)nccn2n1` [Example 741] gave an IC50 of 100 to 250 nM. `Cc1cc(CC(=O)Nc2cc(C34CCC(CC3)C4)[nH]n2)on1` [Example 244] gave an IC50 of 1000 to 100000 nM. `Cn1nc(C=O)cc1C(=O)Nc1cc([C@H]2C[C@@H](OC(=O)NC3(C)CC3)CO2)[nH]n1` [Example 883] was tested, and the IC50 was ≤ 100 nM. With `CC(C)NC(=O)OC[C@H]1C[C@@H](c2cc(Nc3ccc4c(n3)C(C)(C)NC4=O)n[nH]2)C1` [Example 589] the IC50 was ≤ 100 nM. With `COCc1cc2c(Nc3cc([C@H]4C[C@@H](OC(=O)N[C@@H]5C[C@@H]5C)CO4)[nH]n3)nccn2n1` [Example 759] the IC50 was ≤ 100 nM. With `COCc1cc2c(Nc3cc([C@H]4CC[C@@H](Oc5cccnc5)C4)[nH]n3)nccn2n1` (single isomer, unassigned) [Example 525] the IC50 was 1000 to 100000 nM. With `CC(C)NC(=O)O[C@@H]1CC[C@H](c2cc(N)n[nH]2)C1` (single isomer, unassigned) [Example 417] the IC50 was 1000 to 100000 nM. In the case of `COCc1cc2c(Nc3cc([C@H]4C[C@@H](OC(=O)NC56CC(Cl)(C5)C6)CO4)[nH]n3)nccn2n1` [Example 712], the IC50 is reported as ≤ 100 nM. `CC(C)n1cnnc1O[C@H]1CO[C@@H](c2cc(Nc3nccc4nccn34)n[nH]2)C1` [Example 749] gave an IC50 of 100 to 250 nM. For `Cc1cc(CC(=O)Nc2cc([C@@H]3CC[C@H](Oc4nnccc4C(C)C)C3)[nH]n2)on1` (single isomer, unassigned) [Example 104], the IC50 was ≤ 100 nM. For `Cn1nc(COC(F)(F)F)cc1C(=O)Nc1cc([C@H]2C[C@@H](OC(=O)NC34C5C6C7C5C3C7C64)CO2)[nH]n1` (stereo partly shown) [Example 884], the IC50 was ≤ 100 nM. For `COCc1cc2c(Nc3cc([C@H]4C[C@@H](OC(=O)N[C@H]5C[C@@H]5C)CO4)[nH]n3)nccn2n1` [Example 687], the IC50 was ≤ 100 nM. For `Cn1nc(COC(F)(F)F)cc1C(=O)Nc1cc([C@H]2C[C@@H](OC(=O)NC34CC(C#N)(C3)C4)CO2)[nH]n1` [Example 914], the IC50 was ≤ 100 nM. In the case of `COCc1cc(C(=O)Nc2cc([C@@H]3CC[C@H](Oc4cnccc4C)C3)[nH]n2)n(C)n1` (single isomer, unassigned) [Example 367], the IC50 is reported as 100 to 250 nM. For `CC(C)c1ccnnc1O[C@@H]1CO[C@H](c2cc(Nc3nccn4nccc34)n[nH]2)C1` [Example 465], the IC50 was ≤ 100 nM. In the case of `CC(=O)Nc1cc([C@@H]2CC[C@H](Oc3nnccc3C(C)C)C2)[nH]n1` (single isomer, unassigned) [Example 428], the IC50 is reported as ≤ 100 nM. For `C[C@@H](NC(=O)O[C@H]1CO[C@@H](c2cc(NC(=O)c3cc(OCC(F)F)nn3C)n[nH]2)C1)C1CC1` [Example 915], the IC50 was ≤ 100 nM. `C[C@H](NC(=O)O[C@H]1CO[C@@H](c2cc(NC(=O)c3cc(COC(F)(F)F)nn3C)n[nH]2)C1)C1CC1` [Example 746] was tested, and the IC50 was ≤ 100 nM. `c1cc(Nc2cc(C3CCCC3)[nH]n2)n2ccnc2n1` [Example 837] gave an IC50 of 1000 to 100000 nM. In the case of `CC(=O)Nc1nc2ccnc(Nc3cc(C4CC[C@H](OC(=O)NC(C)C)C4)[nH]n3)c2s1` (single isomer, unassigned) [Example 424], the IC50 is reported as ≤ 100 nM. In the case of `COCc1cc2c(Nc3cc([C@H]4C[C@@H](OC(=O)N[C@H](C)CC(F)(F)F)CO4)[nH]n3)nccn2n1` (single isomer, unassigned) [Example 757], the IC50 is reported as ≤ 100 nM. With `Cc1cc(CC(=O)Nc2cc([C@H]3C[C@@H](COc4nscc4C4CC4)C3)[nH]n2)on1` [Example 368] the IC50 was ≤ 100 nM. For `CNS(=O)(=O)N[C@H]1CC[C@@H](c2cc(NC(=O)Cc3cc(C)no3)n[nH]2)C1` (single isomer, unassigned) [Example 146], the IC50 was 1000 to 100000 nM. `COCc1cc(C(=O)Nc2cc([C@H]3CC[C@@H](c4cccc(C(C)C)n4)C3)[nH]n2)n(C)n1` (single isomer, unassigned) [Example 605] gave an IC50 of 1000 to 100000 nM. `CC(C)NC(=O)O[C@@H]1CC[C@H](c2cc(Nc3nccn4nccc34)n[nH]2)C1` (single isomer, unassigned) [Example 138] was tested, and the IC50 was ≤ 100 nM. For `CCCCOc1ccc(Nc2cc(C3CCCC3)[nH]n2)nc1` [Example 808], the IC50 was 1000 to 100000 nM. `CC(C)NC(=O)N[C@@H]1CC[C@H](c2cc(Nc3ncccn3)n[nH]2)C1` (single isomer, unassigned) [Example 86] was tested, and the IC50 was 1000 to 100000 nM. Work on `Cc1cc(CC(=O)Nc2ncc(C3CCCC3)o2)on1` [Example 38] yielded an IC50 of 1000 to 100000 nM. With `COCc1cc2c(Nc3cc([C@H]4C[C@@H](OC(=O)N[C@@H](C)CC(F)(F)F)CO4)[nH]n3)nccn2n1` (single isomer, unassigned) [Example 739] the IC50 was ≤ 100 nM. With `Cc1ncccc1O[C@@H]1CC[C@H](c2cc(Nc3ccc4c(c3)C(C)(C)NC4=O)n[nH]2)C1` (single isomer, unassigned) [Example 546] the IC50 was ≤ 100 nM. For `CC(C)NC(=O)O[C@H]1CC[C@@H](c2cc(Nc3ccsn3)n[nH]2)C1` (single isomer, unassigned) [Example 113], the IC50 was 1000 to 100000 nM. Work on `c1cncc(O[C@@H]2CC[C@H](c3cc(Nc4nccn5nccc45)n[nH]3)C2)c1` (single isomer, unassigned) [Example 504] yielded an IC50 of 1000 to 100000 nM. For `CC(C)c1ccnnc1OC[C@H]1C[C@H](c2cc(Nc3nccn4nccc34)n[nH]2)C1` [Example 489], the IC50 was 250 to 1000 nM. `CC(C)c1cc(Nc2cc(C3CCCC3)[nH]n2)n2ncnc2n1` [Example 817] showed an IC50 of 1000 to 100000 nM. With `CC(C)NC(=O)O[C@@H]1CC[C@H](c2cc(Nc3nc4cccnc4o3)n[nH]2)C1` (racemic) [Example 140] the IC50 was ≤ 100 nM. Compound `CC(C)c1[nH]ncc1O[C@@H]1CO[C@H](c2cc(Nc3nccn4nccc34)n[nH]2)C1` (single isomer, unassigned) [Example 584] has an IC50 of 1000 to 100000 nM. `CC1(NC(=O)O[C@H]2CO[C@@H](c3cc(Nc4ncnn5cccc45)n[nH]3)C2)CC1` [Example 722] was tested, and the IC50 was ≤ 100 nM. `Cc1cc(CC(=O)Nc2cc([C@H]3CC[C@@H](OC(=O)N4CC5CC(F)(C5)C4)C3)[nH]n2)on1` [Example 664] was tested, and the IC50 was 100 to 250 nM. In the case of `CC(C)NC(=O)O[C@@H]1CC[C@H](c2cc(Nc3ccc4c(n3)C(C)(C)NC4=O)n[nH]2)C1` (single isomer, unassigned) [Example 527], the IC50 is reported as ≤ 100 nM. `COCc1cc2c(Nc3cc([C@H]4C[C@@H](OC(=O)N[C@@H](C)C5COC5)CO4)[nH]n3)nccn2n1` [Example 686] was tested, and the IC50 was 100 to 250 nM. In the case of `CC1(NC(=O)O[C@H]2CO[C@H](c3cc(Nc4nccc5nc(C(F)(F)F)cn45)n[nH]3)C2)CC1` [Example 898], the IC50 is reported as 250 to 1000 nM. In the case of `CC(C)c1ccnnc1OC[C@H]1C[C@@H](c2cc(Nc3nccc4ncsc34)n[nH]2)C1` [Example 438], the IC50 is reported as ≤ 100 nM. In the case of `COCc1cn2c(Nc3cc([C@H]4C[C@@H](OC(=O)NC5(C)CC5)CO4)[nH]n3)nccc2n1` [Example 906], the IC50 is reported as ≤ 100 nM. `Cc1cc(CC(=O)Nc2cc([C@H]3CC[C@@H](OC(=O)CC(C)C)C3)[nH]n2)on1` (single isomer, unassigned) [Example 352] was tested, and the IC50 was ≤ 100 nM. In the case of `CC1(NC(=O)O[C@H]2CO[C@@H](c3cc(Nc4nccc5nccn45)n[nH]3)C2)CC1` [Example 735], the IC50 is reported as ≤ 100 nM.
